Columns and labels:
Assay in all cases: relative viability (nuclei count vs DMSO), 5 days (fraction); higher = more cells survive
[1] = compound: COc1nc(N)nc2c1ncn2[C@@H]1O[C@H](CO)[C@@H](O)[C@@H]1O [Nelarabine] + Nc1nc2[nH]cc(CCc3ccc(C(=O)N[C@@H](CCC(=O)O)C(=O)O)cc3)c2c(=O)[nH]1 [Pemetrexed] (partner 0.2 µM)
Outline: (§1)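 Lung cancer cell lines in 1536-well plates got either a single drug or a fixed anchor-drug dose together with five library-drug doses (not always all listed) in √10 steps, by pin tool, on the day after seeding. Nuclei were counted after 5 days, and relative viability is the treated-to-vehicle ratio of nuclei counts. Values are medians of duplicate plates.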

[2] = compound: C=CCn1c(=O)c2cnc(Nc3ccc(N4CCN(C)CC4)cc3)nc2n1-c1cccc(C(C)(C)O)n1 [Adavosertib] + Cc1nc(NC(=O)N2CCC[C@H]2C(N)=O)sc1-c1ccnc(C(C)(C)C(F)(F)F)c1 [Alpelisib] (partner 2 µM)
Outline: as §1

[3] = compound: COc1nc(N)nc2c1ncn2[C@@H]1O[C@H](CO)[C@@H](O)[C@@H]1O [Nelarabine]
Outline: (§2)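 Viability was read as treated-well nuclei divided by vehicle-well nuclei, using the median across plates. Lung cancer cell lines in 1536-well plates were kept overnight at 37 °C, pinned with five √10-spaced library-drug doses, and after 5 days were Hoechst-stained, imaged at 4× and counted in MetaXpress. Plates passed only with control CV below 25% and at least one doubling.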

[4] = compound: C=CCn1c(=O)c2cnc(Nc3ccc(N4CCN(C)CC4)cc3)nc2n1-c1cccc(C(C)(C)O)n1 [Adavosertib]
Outline: as §2

Cell Line: LXF-289
- relative viability ([1]; first compound 0.01 µM): 1
- relative viability ([1]; first compound 0.03162 µM): 0.833
- relative viability ([1]; first compound 0.1 µM): 0.866
- relative viability ([1]; first compound 0.3162 µM): 0.973
- relative viability ([1]; first compound 1 µM): 0.906
- relative viability ([2]; first compound 0.01 µM): 1.08
- relative viability ([2]; first compound 0.03162 µM): 1.01
- relative viability ([2]; first compound 0.1 µM): 1.09
- relative viability ([2]; first compound 0.3162 µM): 1.07
- relative viability ([3]; 0.01 µM): 1.11
- relative viability ([3]; 0.03162 µM): 1.04
- relative viability ([3]; 0.1 µM): 1.01
- relative viability ([3]; 0.3162 µM): 1.05
- relative viability ([3]; 1 µM): 0.995
- relative viability ([4]; 0.01 µM): 1.02
- relative viability ([4]; 0.03162 µM): 0.988
- relative viability ([4]; 0.1 µM): 1.01
- relative viability ([4]; 0.3162 µM): 1.04

Cell Line: NCI-H23
- relative viability ([1]; first compound 0.01 µM): 1.04
- relative viability ([1]; first compound 0.03162 µM): 0.729
- relative viability ([1]; first compound 0.1 µM): 0.771
- relative viability ([1]; first compound 0.3162 µM): 0.71
- relative viability ([1]; first compound 1 µM): 0.666
- relative viability ([2]; first compound 0.01 µM): 0.639
- relative viability ([2]; first compound 0.03162 µM): 0.775
- relative viability ([2]; first compound 0.1 µM): 0.591
- relative viability ([2]; first compound 0.3162 µM): 0.346
- relative viability ([3]; 0.01 µM): 1.22
- relative viability ([3]; 0.03162 µM): 0.911
- relative viability ([3]; 0.1 µM): 1.01
- relative viability ([3]; 0.3162 µM): 0.987
- relative viability ([3]; 1 µM): 0.96
- relative viability ([4]; 0.01 µM): 0.925
- relative viability ([4]; 0.03162 µM): 0.98
- relative viability ([4]; 0.1 µM): 0.659
- relative viability ([4]; 0.3162 µM): 0.313

Cell Line: NCI-H322M
- relative viability ([1]; first compound 0.01 µM): 0.601
- relative viability ([1]; first compound 0.03162 µM): 0.565
- relative viability ([1]; first compound 0.1 µM): 0.631
- relative viability ([1]; first compound 0.3162 µM): 0.653
- relative viability ([1]; first compound 1 µM): 0.61
- relative viability ([2]; first compound 0.03162 µM): 0.77
- relative viability ([2]; first compound 0.1 µM): 0.711
- relative viability ([2]; first compound 0.3162 µM): 0.543
- relative viability ([3]; 0.01 µM): 0.963
- relative viability ([3]; 0.03162 µM): 0.896
- relative viability ([3]; 0.1 µM): 0.884
- relative viability ([3]; 0.3162 µM): 0.937
- relative viability ([3]; 1 µM): 0.923
- relative viability ([4]; 0.01 µM): 0.85
- relative viability ([4]; 0.03162 µM): 0.953
- relative viability ([4]; 0.1 µM): 0.845
- relative viability ([4]; 0.3162 µM): 0.61

Cell Line: NCI-H358
- relative viability ([1]; first compound 0.01 µM): 0.181
- relative viability ([1]; first compound 0.03162 µM): 0.227
- relative viability ([1]; first compound 0.1 µM): 0.161
- relative viability ([1]; first compound 0.3162 µM): 0.172
- relative viability ([1]; first compound 1 µM): 0.328
- relative viability ([2]; first compound 0.01 µM): 0.831
- relative viability ([2]; first compound 0.03162 µM): 0.769
- relative viability ([2]; first compound 0.1 µM): 0.693
- relative viability ([2]; first compound 0.3162 µM): 0.336
- relative viability ([3]; 0.01 µM): 1.1
- relative viability ([3]; 0.03162 µM): 0.928
- relative viability ([3]; 0.1 µM): 0.804
- relative viability ([3]; 0.3162 µM): 1.06
- relative viability ([3]; 1 µM): 1.05
- relative viability ([4]; 0.01 µM): 0.838
- relative viability ([4]; 0.03162 µM): 0.785
- relative viability ([4]; 0.1 µM): 0.752
- relative viability ([4]; 0.3162 µM): 0.467

Cell Line: NCI-H441
- relative viability ([1]; first compound 0.01 µM): 0.249
- relative viability ([1]; first compound 0.03162 µM): 0.277
- relative viability ([1]; first compound 0.1 µM): 0.27
- relative viability ([1]; first compound 0.3162 µM): 0.238
- relative viability ([1]; first compound 1 µM): 0.282
- relative viability ([2]; first compound 0.01 µM): 0.807
- relative viability ([2]; first compound 0.03162 µM): 0.745
- relative viability ([2]; first compound 0.1 µM): 0.764
- relative viability ([2]; first compound 0.3162 µM): 0.596
- relative viability ([3]; 0.01 µM): 1.31
- relative viability ([3]; 0.03162 µM): 1.11
- relative viability ([3]; 0.1 µM): 0.987
- relative viability ([3]; 0.3162 µM): 1.14
- relative viability ([3]; 1 µM): 1.09
- relative viability ([4]; 0.01 µM): 1.16
- relative viability ([4]; 0.03162 µM): 1.01
- relative viability ([4]; 0.1 µM): 1.19
- relative viability ([4]; 0.3162 µM): 1.02

Cell Line: NCI-H460
- relative viability ([1]; first compound 0.01 µM): 0.0547
- relative viability ([1]; first compound 0.03162 µM): 0.0633
- relative viability ([1]; first compound 0.1 µM): 0.0599
- relative viability ([1]; first compound 0.3162 µM): 0.0615
- relative viability ([1]; first compound 1 µM): 0.0625
- relative viability ([2]; first compound 0.01 µM): 0.543
- relative viability ([2]; first compound 0.03162 µM): 0.518
- relative viability ([2]; first compound 0.1 µM): 0.374
- relative viability ([2]; first compound 0.3162 µM): 0.21
- relative viability ([3]; 0.01 µM): 1.24
- relative viability ([3]; 0.03162 µM): 1.09
- relative viability ([3]; 0.1 µM): 1.01
- relative viability ([3]; 0.3162 µM): 1.2
- relative viability ([3]; 1 µM): 1
- relative viability ([4]; 0.01 µM): 1.03
- relative viability ([4]; 0.03162 µM): 1.01
- relative viability ([4]; 0.1 µM): 1.02
- relative viability ([4]; 0.3162 µM): 1.08

Cell Line: NCI-H520
- relative viability ([1]; first compound 0.01 µM): 0.768
- relative viability ([1]; first compound 0.03162 µM): 0.584
- relative viability ([1]; first compound 0.1 µM): 0.687
- relative viability ([1]; first compound 0.3162 µM): 0.842
- relative viability ([1]; first compound 1 µM): 0.786
- relative viability ([2]; first compound 0.01 µM): 0.884
- relative viability ([2]; first compound 0.03162 µM): 0.887
- relative viability ([2]; first compound 0.1 µM): 1.03
- relative viability ([2]; first compound 0.3162 µM): 0.717
- relative viability ([3]; 0.01 µM): 1.2
- relative viability ([3]; 0.03162 µM): 1.02
- relative viability ([3]; 0.1 µM): 1.1
- relative viability ([3]; 0.3162 µM): 0.941
- relative viability ([3]; 1 µM): 1.01
- relative viability ([4]; 0.01 µM): 0.948
- relative viability ([4]; 0.03162 µM): 0.876
- relative viability ([4]; 0.1 µM): 1
- relative viability ([4]; 0.3162 µM): 0.879

Cell Line: NCI-H596
- relative viability ([1]; first compound 0.01 µM): 0.504
- relative viability ([1]; first compound 0.03162 µM): 0.517
- relative viability ([1]; first compound 0.1 µM): 0.574
- relative viability ([1]; first compound 0.3162 µM): 0.492
- relative viability ([1]; first compound 1 µM): 0.491
- relative viability ([2]; first compound 0.01 µM): 0.51
- relative viability ([2]; first compound 0.03162 µM): 0.464
- relative viability ([2]; first compound 0.1 µM): 0.457
- relative viability ([2]; first compound 0.3162 µM): 0.422
- relative viability ([3]; 0.01 µM): 1.05
- relative viability ([3]; 0.03162 µM): 1.01
- relative viability ([3]; 0.1 µM): 1
- relative viability ([3]; 0.3162 µM): 0.992
- relative viability ([3]; 1 µM): 1.06
- relative viability ([4]; 0.01 µM): 1.05
- relative viability ([4]; 0.03162 µM): 1.1
- relative viability ([4]; 0.1 µM): 0.956
- relative viability ([4]; 0.3162 µM): 0.931

Cell Line: NCI-H647
- relative viability ([1]; first compound 0.01 µM): 0.17
- relative viability ([1]; first compound 0.03162 µM): 0.162
- relative viability ([1]; first compound 0.1 µM): 0.154
- relative viability ([1]; first compound 0.3162 µM): 0.194
- relative viability ([1]; first compound 1 µM): 0.217
- relative viability ([2]; first compound 0.01 µM): 1.1
- relative viability ([2]; first compound 0.03162 µM): 1.1
- relative viability ([2]; first compound 0.1 µM): 1.02
- relative viability ([2]; first compound 0.3162 µM): 0.508
- relative viability ([3]; 0.01 µM): 1.29
- relative viability ([3]; 0.03162 µM): 0.916
- relative viability ([3]; 0.1 µM): 1.07
- relative viability ([3]; 0.3162 µM): 1.14
- relative viability ([3]; 1 µM): 0.997
- relative viability ([4]; 0.01 µM): 1.03
- relative viability ([4]; 0.03162 µM): 1.04
- relative viability ([4]; 0.1 µM): 0.918
- relative viability ([4]; 0.3162 µM): 0.669

Source: the supplement of paper PMC10307832
